Experimental data taken from patent publication US10322111B2, “Chemokine receptor binding heterocyclic compounds with enhanced efficacy” (Genzyme Corporation, priority 2001, dated 2019).
Where two headings read alike, the source gives them in different places.

Tested on: CFU-GM, BFU-E and CFU-GEMM progenitor cells
Details: 80 μg/kg s.c.

## c1cc(CN2CCCNCCNCCCNCC2)ccc1CN1CCCNCCNCCCNCC1 [AMD3100, 1,1′-[1,4-phenylene-bis(methylene)]-bis-1,4,8,11-tetraazacyclotetradecane]
P1, T = 1 h after injection
  Absolute # of Progenitors per ML, BFU-E: 674 per ML
  Absolute # of Progenitors per ML, CFU-GEMM: 264 per ML
  Absolute # of Progenitors per ML, CFU-GM: 1259 per ML
  fold change from T=0, progenitors BFU-E, methylcellulose culture: 2.58 fold
  fold change from T=0, progenitors CFU-GEMM, methylcellulose culture: 2.07 fold
  fold change from T=0, progenitors CFU-GM, methylcellulose culture: 5.09 fold
P1, T = 3 h after injection
  Absolute # of Progenitors per ML, BFU-E: 1340 per ML
  Absolute # of Progenitors per ML, CFU-GEMM: 540 per ML
  Absolute # of Progenitors per ML, CFU-GM: 1760 per ML
  fold change from T=0, progenitors BFU-E, methylcellulose culture: 5.13 fold
  fold change from T=0, progenitors CFU-GEMM, methylcellulose culture: 4.25 fold
  fold change from T=0, progenitors CFU-GM, methylcellulose culture: 7.12 fold
P1, T = 6 h after injection
  Absolute # of Progenitors per ML, BFU-E: 2388 per ML
  Absolute # of Progenitors per ML, CFU-GEMM: 949 per ML
  Absolute # of Progenitors per ML, CFU-GM: 3624 per ML
  fold change from T=0, progenitors BFU-E, methylcellulose culture: 9.14 fold
  fold change from T=0, progenitors CFU-GEMM, methylcellulose culture: 7.47 fold
  fold change from T=0, progenitors CFU-GM, methylcellulose culture: 14.66 fold
P1, T = 9 h after injection
  Absolute # of Progenitors per ML, BFU-E: 1418 per ML
  Absolute # of Progenitors per ML, CFU-GEMM: 335 per ML
  Absolute # of Progenitors per ML, CFU-GM: 1547 per ML
  fold change from T=0, progenitors BFU-E, methylcellulose culture: 5.43 fold
  fold change from T=0, progenitors CFU-GEMM, methylcellulose culture: 2.64 fold
  fold change from T=0, progenitors CFU-GM, methylcellulose culture: 6.26 fold
P1, T = 24 h after injection
  Absolute # of Progenitors per ML, BFU-E: 278 per ML
  Absolute # of Progenitors per ML, CFU-GEMM: 142 per ML
  Absolute # of Progenitors per ML, CFU-GM: 271 per ML
  fold change from T=0, progenitors BFU-E, methylcellulose culture: 1.06 fold
  fold change from T=0, progenitors CFU-GEMM, methylcellulose culture: 1.12 fold
  fold change from T=0, progenitors CFU-GM, methylcellulose culture: 1.10 fold
P2, T = 1 h after injection
  Absolute # of Progenitors per ML, BFU-E: 608 per ML
  Absolute # of Progenitors per ML, CFU-GEMM: 272 per ML
  Absolute # of Progenitors per ML, CFU-GM: 1455 per ML
  fold change from T=0, progenitors BFU-E, methylcellulose culture: 1.48 fold
  fold change from T=0, progenitors CFU-GEMM, methylcellulose culture: 2.26 fold
  fold change from T=0, progenitors CFU-GM, methylcellulose culture: 5.33 fold
P2, T = 3 h after injection
  Absolute # of Progenitors per ML, BFU-E: 809 per ML
  Absolute # of Progenitors per ML, CFU-GEMM: 418 per ML
  Absolute # of Progenitors per ML, CFU-GM: 4646 per ML
  fold change from T=0, progenitors BFU-E, methylcellulose culture: 1.98 fold
  fold change from T=0, progenitors CFU-GEMM, methylcellulose culture: 3.47 fold
  fold change from T=0, progenitors CFU-GM, methylcellulose culture: 17.02 fold
P2, T = 6 h after injection
  Absolute # of Progenitors per ML, BFU-E: 1502 per ML
  Absolute # of Progenitors per ML, CFU-GEMM: 1126 per ML
  Absolute # of Progenitors per ML, CFU-GM: 6540 per ML
  fold change from T=0, progenitors BFU-E, methylcellulose culture: 3.67 fold
  fold change from T=0, progenitors CFU-GEMM, methylcellulose culture: 9.35 fold
  fold change from T=0, progenitors CFU-GM, methylcellulose culture: 23.96 fold
P2, T = 9 h after injection
  Absolute # of Progenitors per ML, BFU-E: 1886 per ML
  Absolute # of Progenitors per ML, CFU-GEMM: 854 per ML
  Absolute # of Progenitors per ML, CFU-GM: 3416 per ML
  fold change from T=0, progenitors BFU-E, methylcellulose culture: 4.61 fold
  fold change from T=0, progenitors CFU-GEMM, methylcellulose culture: 7.09 fold
  fold change from T=0, progenitors CFU-GM, methylcellulose culture: 12.51 fold
P2, T = 24 h after injection
  Absolute # of Progenitors per ML, BFU-E: 768 per ML
  Absolute # of Progenitors per ML, CFU-GEMM: 316 per ML
  Absolute # of Progenitors per ML, CFU-GM: 521 per ML
  fold change from T=0, progenitors BFU-E, methylcellulose culture: 1.88 fold
  fold change from T=0, progenitors CFU-GEMM, methylcellulose culture: 2.62 fold
  fold change from T=0, progenitors CFU-GM, methylcellulose culture: 1.91 fold
P3, T = 1 h after injection
  Absolute # of Progenitors per ML, BFU-E: 806 per ML
  Absolute # of Progenitors per ML, CFU-GEMM: 312 per ML
  Absolute # of Progenitors per ML, CFU-GM: 1040 per ML
  fold change from T=0, progenitors BFU-E, methylcellulose culture: 2.30 fold
  fold change from T=0, progenitors CFU-GEMM, methylcellulose culture: 2.22 fold
  fold change from T=0, progenitors CFU-GM, methylcellulose culture: 3.70 fold
P3, T = 3 h after injection
  Absolute # of Progenitors per ML, BFU-E: 915 per ML
  Absolute # of Progenitors per ML, CFU-GEMM: 610 per ML
  Absolute # of Progenitors per ML, CFU-GM: 4233 per ML
  fold change from T=0, progenitors BFU-E, methylcellulose culture: 2.61 fold
  fold change from T=0, progenitors CFU-GEMM, methylcellulose culture: 4.34 fold
  fold change from T=0, progenitors CFU-GM, methylcellulose culture: 15.07 fold
P3, T = 6 h after injection
  Absolute # of Progenitors per ML, BFU-E: 1593 per ML
  Absolute # of Progenitors per ML, CFU-GEMM: 916 per ML
  Absolute # of Progenitors per ML, CFU-GM: 5895 per ML
  fold change from T=0, progenitors BFU-E, methylcellulose culture: 4.54 fold
  fold change from T=0, progenitors CFU-GEMM, methylcellulose culture: 6.52 fold
  fold change from T=0, progenitors CFU-GM, methylcellulose culture: 20.99 fold
P3, T = 9 h after injection
  Absolute # of Progenitors per ML, BFU-E: 1302 per ML
  Absolute # of Progenitors per ML, CFU-GEMM: 347 per ML
  Absolute # of Progenitors per ML, CFU-GM: 2647 per ML
  fold change from T=0, progenitors BFU-E, methylcellulose culture: 3.71 fold
  fold change from T=0, progenitors CFU-GEMM, methylcellulose culture: 2.47 fold
  fold change from T=0, progenitors CFU-GM, methylcellulose culture: 9.42 fold
P3, T = 24 h after injection
  Absolute # of Progenitors per ML, BFU-E: 402 per ML
  Absolute # of Progenitors per ML, CFU-GEMM: 97 per ML
  Absolute # of Progenitors per ML, CFU-GM: 402 per ML
  fold change from T=0, progenitors BFU-E, methylcellulose culture: 1.14 fold
  fold change from T=0, progenitors CFU-GEMM, methylcellulose culture: 0.69 fold
